Measured values taken from publication PMC12670313 (ACS Central Science, 2025).
Values joined by “and” are separate entries in the source; they are usually repeats but may differ in a detail not shown here. Equal entries are not always repeated. “Also recorded” adds a separate entry of the source.

Tested on: r(CUG)exp–MBNL1 complex
Assay: Live-cell NanoBRET assay in HeLa480 cells
Type: cell-based
Conditions: HeLa480 cells; for IC50: compound 16 h; for reduction of NanoBRET signal, dose response: up to 50 μM
Method: To optimize the assay, HeLa480 cells were cotransfected with plasmids encoding MBNL1 fused to HaloTag and NanoLuc in various donor to acceptor DNA ratios in a 6-well plate using 8 μL of FuGENE HD Transfection Reagent (Promega, catalog #E2311) in 110 μL of Opti-MEM (Giboco, catalog #31985070), following the manufacturer’s protocol. The transfection mix was incubated for 10 min at room temperature before being added to the cells. After incubating the cells for 20 h, they were trypsinized from the surface, resuspended in an appropriate volume of assay medium (Opti-MEM + 4% (v/v) FBS), and counted using trypan blue (Corning, catalog #25-900-CI) and the Countess 3 Automated Cell Counter (Invitrogen, catalog #AMQAX2000) to determine cell viability and total cell number. The cell suspension was then diluted to the desired concentration and reseeded into white 96-well tissue culture plates (Corning, catalog #3903) where 100 μL of growth medium containing 200 nM HaloTag NanoBRET 618 Ligand (Promega, catalog #N1662) was added to each well, delivering 1.6 × 10^4 transfected cells (affording ∼70% confluency). [Note: in each experiment, cells were delivered only in 100 μL of growth medium to three wells as no HaloTag ligand controls.] The cells were then incubated overnight at 37 °C with 5% CO2 to facilitate specific binding to the HaloTag fusion protein.
The following day, NanoLuc substrate and 20 μM extracellular NanoLuc inhibitor were added to the wells. For a 96-well plate, 2.5 mL of Opti-MEM were mixed with 25 μL of NanoLuc substrate (Promega, catalog #N1662) and 8.3 μL of extracellular NanoLuc inhibitor (Promega, catalog #N2160). Then, 25 μL of this mixture was added to each well, resulting in final concentrations of 1× NanoLuc substrate and 20 μM extracellular NanoLuc inhibitor in the assay medium and mixed at room temperature. The interaction between MBNL1 and r(CUG)480 was measured by detecting the BRET signal using the GloMax Discover System (Promega, catalog #GM3000). Dual-filtered luminescence was collected with a 460/80 nm bandpass filter for the donor (NanoLuc protein) and a 610 nm long-pass filter for the acceptor (HaloTag ligand) using an integration time of 500 ms. The corrected NanoBRET ratio, expressed in milliBRET units (mBU), was calculated using eq : 1 Corrected NanoBRET Ratio=HaloTag ligand(Emission610nm/LP)/Donor Luminescence(Emission450nm/BP80nm)−No Ligand Control(Emission610nm/LP)/Donor Luminescence(Emission450nm/BP80nm)
NanoBRET inhibition rate was calculated using eq : 2 Inhibitionrate=RatioDMSO−Ratiosample/RatioDMSO−RatioWT×100% In all subsequent assays, a ratio of […] MBNL1–HaloTag:MBNL1–NanoLuc plasmids (2.5 μg HaloTag and 50 ng NanoLuc) was used as described.
The CAG25 Vivo-Morpholino was added directly to the cell culture medium (without the need for a transfection reagent) at the recommended final concentration of 10 μM, according to the manufacturer’s guidelines. It was dissolved in RNase-free water and stored at room temperature before use. The Vivo-Morpholino was added 4 h after the cells had been reseeded into the 96-well plate. Cells were then incubated with the Vivo-Morpholino for 16 h before NanoBRET signal detection.
Plasmids encoding MBNL1 fusion proteins were first transfected into HeLa480 cells cultured in 6-well plates (∼80% confluency; as described in “NanoBRET Assay: Determining the Optimal Placement of the Fusion (N- or C-Terminus) and Plasmid Ratios”). Approximately 24 h later, the transfected cells were reseeded into 96-well plates (Corning, catalog #3903) at a density of 1.6 × 10^4 cells per well in 90 μL of growth medium, affording an approximate confluency of ∼70%. The cells were incubated at 37 °C for 4 h to allow adherence to the plate. […]

| Compound | IC50 | reduction of NanoBRET signal, dose response |
| --- | --- | --- |
| Cc1ccc(CCNC(=O)c2cc3c(N4CCSCC4)nc(C)cn3n2)cc1 [B4] | 22 µM and 20 µM | – |
| Cc1ccc(CNC(=O)c2cc3c(N4CCCC4)nc(C)cn3n2)cc1 [A1] | > 50 µM | activity only observed at the highest dose; also recorded: weak activity |
| Cc1cn2nc(C(=O)NCc3ccc(Cl)cc3)cc2c(N2CCCC2)n1 [A3] | 23 ± 5 µM | – |
| COc1ccccc1CNC(=O)c1cc2c(N3CCSCC3)nc(C)cn2n1 [B2] | > 50 µM | activity only at the highest dose |
| COc1ccc(CNC(=O)c2cc3c(N4CCSCC4)nc(C)cn3n2)cc1 [B3] | 35 ± 12 µM | – |
| Cc1cn2nc(C(=O)NCc3ccc(C(F)(F)F)cc3)cc2c(N2CCCC2)n1 [A4] | 39 ± 6 µM | – |
| COc1ccc(CCNC(=O)c2cc3c(N4CCCC4)nc(C)cn3n2)cc1OC [A6] | 27 ± 3 µM | – |
| CCc1ccc(CNC(=O)c2cc3c(N4CCCC4)nc(C)cn3n2)cc1 [A2] | 22 ± 6 µM | – |
| Cc1ccc(CNC(=O)c2cc3c(N4CCSCC4)nc(C)cn3n2)cc1 [B1] | 37 ± 12 µM | active |
